# From PMC10893631, “Receptor-based pharmacophore modeling, molecular docking, synthesis and biological evaluation of novel VEGFR-2, FGFR-1, and BRAF multi-kinase inhibitors” (BMC Chemistry, 2024)
# Like-named read-outs stand apart in the source and are kept apart here.
# Key:
# VEGFR-2 = target: T1, VEGFR-2 (Homo sapiens, UniProt P35968); test: VEGFR-2 kinase assay kit (BPS), Kinase-Glo Max luminescence; type: biochemical; settings: VEGFR-2, single dose 10 µM, duplicate, mean ± SD
# T1 construct: purchased BPS Biosciences 40325
# T1 sequence (P35968 20-1356): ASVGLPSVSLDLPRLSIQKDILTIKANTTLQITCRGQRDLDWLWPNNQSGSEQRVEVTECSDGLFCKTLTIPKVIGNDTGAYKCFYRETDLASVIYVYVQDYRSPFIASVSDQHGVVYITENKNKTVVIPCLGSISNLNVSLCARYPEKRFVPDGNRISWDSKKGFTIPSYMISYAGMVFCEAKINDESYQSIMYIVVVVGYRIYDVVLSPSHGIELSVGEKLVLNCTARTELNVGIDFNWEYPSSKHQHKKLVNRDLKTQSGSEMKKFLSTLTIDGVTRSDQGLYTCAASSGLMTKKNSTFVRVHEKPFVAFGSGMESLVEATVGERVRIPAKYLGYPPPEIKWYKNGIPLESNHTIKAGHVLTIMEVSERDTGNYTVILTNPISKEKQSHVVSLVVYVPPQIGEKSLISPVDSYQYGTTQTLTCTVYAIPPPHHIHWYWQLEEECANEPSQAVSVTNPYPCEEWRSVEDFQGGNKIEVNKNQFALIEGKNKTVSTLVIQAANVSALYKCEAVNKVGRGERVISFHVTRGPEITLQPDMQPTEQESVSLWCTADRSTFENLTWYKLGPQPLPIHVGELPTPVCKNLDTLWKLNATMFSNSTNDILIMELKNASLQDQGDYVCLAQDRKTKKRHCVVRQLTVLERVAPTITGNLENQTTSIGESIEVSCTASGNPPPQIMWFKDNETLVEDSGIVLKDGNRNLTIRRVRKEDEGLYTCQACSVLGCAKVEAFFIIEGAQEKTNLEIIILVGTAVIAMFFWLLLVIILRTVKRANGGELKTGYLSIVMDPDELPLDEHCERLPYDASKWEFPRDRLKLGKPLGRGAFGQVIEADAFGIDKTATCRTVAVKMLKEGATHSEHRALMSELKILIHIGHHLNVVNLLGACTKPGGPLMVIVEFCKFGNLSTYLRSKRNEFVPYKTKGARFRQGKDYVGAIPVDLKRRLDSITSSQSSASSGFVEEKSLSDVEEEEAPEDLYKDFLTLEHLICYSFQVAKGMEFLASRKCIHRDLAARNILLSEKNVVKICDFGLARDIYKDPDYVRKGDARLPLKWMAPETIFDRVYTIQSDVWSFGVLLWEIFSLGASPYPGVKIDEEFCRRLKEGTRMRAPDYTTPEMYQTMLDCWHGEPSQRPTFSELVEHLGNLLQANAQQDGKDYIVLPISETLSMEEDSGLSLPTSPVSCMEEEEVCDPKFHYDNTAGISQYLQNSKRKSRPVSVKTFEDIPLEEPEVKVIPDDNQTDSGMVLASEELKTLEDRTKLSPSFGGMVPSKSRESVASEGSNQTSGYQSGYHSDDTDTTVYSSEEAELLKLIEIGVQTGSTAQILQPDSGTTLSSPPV
# Description: 2. Biochemical kinase assay procedure
# The inhibitory activity against different kinases was determined using kinase kits […]
# from BPS Biosciences and kinase-Glo Max luminescence kinase assay kit (Promega).
# The assay was carried out according to the protocol provided by the manufacturer. A stock solution of the synthesized derivatives in 100% DMSO was prepared. Subsequently, the compounds were diluted to 10% DMSO.
# A master mixture was prepared according to the number of wells. For VEGFR-2 and FGFR-1 biochemical assays each well include 6 μl of 5x Kinase Buffer 1 + 1 μl of 500 μM ATP + 1 μl of PTK Substrate (Poly-Glu,Tyr 4:1) (10 mg/ml) + 17 μl of distilled water. For BRAF assay each well include 6 μl of 5x Kinase Buffer 1 + 1 μl of ATP (500 μM) + 10 μl of 5X Raf substrate + 8 μl of distilled water. 1x Kinase buffer 1 was prepared by mixing 600 μl of 5x Kinase Buffer 1 with 2400 μl water to give 3 mL. Kinases were thawed on ice and were diluted with 1x Kinase Buffer 1.
# To start the biochemical reaction, 25 µL of the master mixture was added to each well in 96 well plate. 5 µL of 10% DMSO was added to positive control wells and blank wells. 5 µL of diluted inhibitor was added to each well labelled with the test inhibitor so that the final concentration of DMSO is 1% in all reactions. Then 20 µL of (1 ng / μl) in case of VEGFR-2 and FGFR-1 or (2.5 ng/μl) in case of BRAF in 1x kinase buffer was added to positive control wells and wells labelled with the inhibitor, while 20 µL 1x kinase buffer 1 was added to the […]
# The plate was incubated at 30 °C for 45 min. Subsequently, 50 μl of Kinase-Glo Max luminescence reagent was added to each well and the plate was covered with aluminum foil and incubated at room temperature 15 min. Finally, the luminescence was recorded using multimode microplate reader. Kinase activity assays were performed in duplicate at each […]
# The luminescence data were analyzed as follows. The difference between luminescence intensities in the absence of kinase (Lut) and in the presence of kinase (Luc) was defined as 100 % activity (Lut – Luc). Using luminescence signal (Lu) in the presence of the compound, % activity was calculated as: % activity = {(Lut - Lu)/(Lut - Luc)}×100%. The […]
# concentration of the test compounds required to reduce the kinase activity by 50% was determined from dose-response curves and recorded as their IC50. […]
# [1] = system: NCI panel of 60 tumor cell lines; test: NCI SRB growth inhibition, whole panel mean (single dose 10 µM / five-dose); type: cell-based, human; settings: Homo sapiens; for GI50: mean over NCI cancer cell lines, five-dose
# Description: Screening of cytotoxic activity against a panel of sixty human tumor cell lines The selected compounds by NCI were evaluated for their anticancer activity in a two- stage process. […] Then, the output from the single dose screen is reported as a mean graph. […] Assay protocol. […] For a typical screening experiment, cells are inoculated into 96 well microtiter plates in 100 µL at plating densities ranging from 5000 to 40,000 cells/well depending on the doubling time of individual cell lines. […] After 24 h, two plates of each cell line are fixed in situ with TCA, to represent a measurement of the cell population for each cell line at the time of drug addition (Tz). The experimental drugs are solubilized in dimethyl sulfoxide at 400-fold the desired final maximum test concentration and stored frozen prior to use. At the time of drug addition, an aliquot of frozen concentrate is thawed and diluted to twice the desired final maximum test concentration with complete medium containing 50 µg/mL gentamicin. Additional four, 10-fold or ½ log serial dilutions are made to provide a total of five drug concentrations plus control. Aliquots of 100 mL of these different drug dilutions are added to the appropriate microtiter wells already containing […] of medium, resulting in the required final drug concentrations. […] For adherent cells, the assay is terminated by the addition of cold TCA. […] The supernatant is discarded, and the plates are washed five times with tap water and air dried. Sulforhodamine B (SRB) solution ([…]) at 0.4% (w/v) in 1% acetic acid is added to each well, and plates are incubated for 10 min at room temperature. After staining, unbound dye is removed by washing five times with 1% acetic acid and the plates are air dried. […] Using the seven absorbance measurements [time zero, (Tz), control growth, (C), and test growth in the presence of drug at the five concentration levels (Ti)], the percentage growth is calculated at each of the drug concentrations levels. Percentage growth inhibition is calculated as: [(Ti Tz)/(C–Tz)] x 100 for concentrations for which Ti>/=Tz and [(Ti-Tz)/Tz] x 100 for concentrations for which Ti < Tz. Three dose response parameters are calculated for each experimental agent. […] The drug concentration resulting in total growth inhibition (TGI) is calculated from Ti = Tz. […] Values are calculated for each of these three parameters if the level of activity is reached; however, if the effect is not reached or is exceeded, the value for that parameter is expressed as greater or less than the maximum or minimum concentration tested.
# DU-145 = test: NCI SRB growth inhibition (single dose 10 µM / five-dose); type: cell-based, human; settings: Homo sapiens; for inhibition at 10 µM: DU-145 (Prostate cancer), read-out: GI%; for GI50: DU-145, Prostate cancer, five-dose
# Method in brief: (§1)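 Seeding varied with cell doubling time (5000–40,000 cells/well). Dilutions were 10-fold or ½ log, five levels in total. Sulforhodamine B staining (0.4% w/v, 10 min, room temperature) of TCA-fixed cells measured growth.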
# HCT-116 = test: as above; type: cell-based, human; settings: Homo sapiens, HCT-116; for inhibition at 10 µM: read-out: GI%
# Method in brief: as §1
# HL-60(TB) = test: as above; type: cell-based, human; settings: Homo sapiens; for inhibition at 10 µM: HL-60(TB) (Leukemia), read-out: GI%; for GI50: HL-60(TB), Leukemia, five-dose
# Method in brief: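 SRB read-out. Plating density 5000–40,000 cells/well; Tz fixed at 24 h; 5 conc. (10-fold or ½ log) + control; TCA fix, 0.4% SRB/1% AcOH 10 min RT; % growth = (Ti−Tz)/(C−Tz)×100, or (Ti−Tz)/Tz×100 when Ti<Tz.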
# K-562 = test: as above; type: cell-based, human; settings: Homo sapiens, K562; for inhibition at 10 µM: K-562 (Leukemia), read-out: GI%; for GI50: K-562, Leukemia, five-dose
# Method in brief: as §1
# NCI-H522 = test: as above; type: cell-based, human; settings: Homo sapiens; for inhibition at 10 µM: NCI-H522 (Non-small cell lung cancer), read-out: GI%; for GI50: NCI-H522, Non-small cell lung cancer, five-dose
# Method in brief: as §1
# PC-3 = test: as above; type: cell-based, human; settings: Homo sapiens; for inhibition at 10 µM: PC-3 (Prostate cancer), read-out: GI%; for GI50: PC-3, Prostate cancer, five-dose
# Method in brief: as §1
# U251 = test: as above; type: cell-based, human; settings: Homo sapiens, U-251; for inhibition at 10 µM: U251 (CNS cancer), read-out: GI%; for GI50: U251, CNS cancer, five-dose
# Method in brief: as §1
# UO-31 = test: as above; type: cell-based, human; settings: Homo sapiens; for inhibition at 10 µM: UO-31 (Renal cancer), read-out: GI%; for GI50: UO-31, Renal cancer, five-dose
# Method in brief: as §1
# [2] = mean over NCI 60 cell lines, > 100% = lethal effect, read-out: mean growth inhibition % (GI%)
# [3] = mean over NCI panel of 60 tumor cell lines, read-out: Mean growth inhibition %
Structure (SMILES),inhibition at 10 µM (VEGFR-2),"inhibition at 10 µM [1, 2]","inhibition at 10 µM [1, 3]",inhibition at 10 µM (DU-145),inhibition at 10 µM (HCT-116),inhibition at 10 µM (HL-60(TB)),inhibition at 10 µM (K-562),inhibition at 10 µM (NCI-H522),inhibition at 10 µM (PC-3),inhibition at 10 µM (U251),inhibition at 10 µM (UO-31),GI50 [1],GI50 (DU-145),GI50 (HCT-116),GI50 (HL-60(TB)),GI50 (K-562),GI50 (NCI-H522),GI50 (PC-3),GI50 (U251),GI50 (UO-31)
"O=C(NN=Cc1cccc(O)c1)c1ccc2[nH]c(-c3ccccc3)nc2c1 [8b, N'-(3-Hydroxybenzylidene)-2-phenyl-1H-benzo[d]imidazole-5-carbohydrazide]",23.8 ± 1.47%,8.49%,8.49%,< 5%,< 5%,14.4%,21.4%,38.1%,11.8%,< 5%,21.6%,–,–,–,–,–,–,–,–,–
"COc1cccc(C=NNC(=O)c2ccc3[nH]c(-c4ccccc4)nc3c2)c1 [8c, N'-(3-Methoxybenzylidene)-2-phenyl-1H-benzo[d]imidazole-5-carbohydrazide]",18.5 ± 0.95%,20.7%,20.7%,18.4%,12.7%,38.1%,41.7%,26%,24.6%,14.3%,30.6%,–,–,–,–,–,–,–,–,–
"COc1cccc(C=NNC(=O)c2ccc3[nH]c(-c4ccccc4)nc3c2)c1O [8d, N'-(2-hydroxy-3-methoxybenzylidene)-2-phenyl-1H-benzo[d]imidazole-5-carbohydrazide]",53.8 ± 2.62%,92.5%,92.5%,79.7%,97.4%,90%,60.9%,> 100%,82.2%,99.9%,98.5%,2620 nM,3050 nM,1840 nM,2420 nM,2040 nM,1970 nM,2710 nM,760 nM,2340 nM
"COc1ccc(C=NNC(=O)c2ccc3[nH]c(-c4ccccc4)nc3c2)cc1O [8e, N'-(3-Hydroxy-4-methoxybenzylidene)-2-phenyl-1H-benzo[d]imidazole-5-carbohydrazide]",36.4 ± 1.91%,16.8%,16.8%,< 5%,15%,24.7%,26.2%,29.4%,11.5%,14.6%,38.2%,–,–,–,–,–,–,–,–,–
"COc1ccc(OC)c(C=NNC(=O)c2ccc3[nH]c(-c4ccccc4)nc3c2)c1 [8f, N'-(2,5-Dimethoxybenzylidene)-2-phenyl-1H-benzo[d]imidazole-5-carbohydrazide]",58.3 ± 2.98%,33.7%,33.7%,18.4%,52.5%,36.3%,63%,37.8%,55.5%,20.7%,54%,–,–,–,–,–,–,–,–,–
"COc1cc(C=NNC(=O)c2ccc3[nH]c(-c4ccccc4)nc3c2)cc(OC)c1OC [8g, 2-Phenyl-N'-(3,4,5-trimethoxybenzylidene)-1H-benzo[d]imidazole-5-carbohydrazide]",47.9 ± 3.53%,36%,36%,17.1%,41.6%,17.1%,30.4%,50.7%,37.9%,42.3%,45.5%,–,–,–,–,–,–,–,–,–
"COc1ccc(-c2nc3cc(C(=O)NN=Cc4ccccc4O)ccc3[nH]2)cc1 [8h, N'-(2-Hydroxybenzylidene)-2-(4-methoxyphenyl)-1H-benzo[d]imidazole-5-carbohydrazide]",62.9 ± 3.89%,> 100%,> 100%,> 100%,> 100%,82.9%,99.5%,> 100%,> 100%,> 100%,> 100%,2980 nM,2330 nM,4930 nM,2090 nM,1360 nM,1540 nM,1770 nM,1640 nM,1700 nM
"COc1ccc(-c2nc3cc(C(=O)NN=Cc4cccc(O)c4)ccc3[nH]2)cc1 [8i, N'-(3-Hydroxybenzylidene)-2-(4-methoxyphenyl)-1H-benzo[d]imidazole-5-carbohydrazide]",45.2 ± 2.22%,33.1%,33.1%,14%,42.8%,55.1%,60.6%,43.4%,34.4%,32.1%,10.5%,–,–,–,–,–,–,–,–,–
